Assay [1] concerns the target T1, ER-α (Homo sapiens, UniProt P03372).
T1 construct: endogenous in cells; host or cells: MCF-7
T1 sequence (P03372 1-595): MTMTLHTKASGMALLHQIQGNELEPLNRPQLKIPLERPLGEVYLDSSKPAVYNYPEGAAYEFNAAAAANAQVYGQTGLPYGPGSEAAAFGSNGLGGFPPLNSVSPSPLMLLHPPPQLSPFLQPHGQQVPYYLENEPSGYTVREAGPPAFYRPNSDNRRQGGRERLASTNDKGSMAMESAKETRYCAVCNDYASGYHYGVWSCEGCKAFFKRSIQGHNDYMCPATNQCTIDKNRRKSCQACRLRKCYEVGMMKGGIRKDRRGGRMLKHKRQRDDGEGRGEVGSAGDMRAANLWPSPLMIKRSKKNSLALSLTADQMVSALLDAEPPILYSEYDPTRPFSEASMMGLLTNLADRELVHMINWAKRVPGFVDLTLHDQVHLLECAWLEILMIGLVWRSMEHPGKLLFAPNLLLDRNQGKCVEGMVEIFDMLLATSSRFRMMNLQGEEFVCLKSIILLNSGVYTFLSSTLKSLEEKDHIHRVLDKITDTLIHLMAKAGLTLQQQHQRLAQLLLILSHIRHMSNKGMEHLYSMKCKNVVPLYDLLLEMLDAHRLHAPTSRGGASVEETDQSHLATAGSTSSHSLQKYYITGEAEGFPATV
Description: Breast Cancer Cell ER-α In Cell Western Assay (SP1). The note with it: MCF-7 cells, 4 or 24 hr post compound addition, SP1 antibody; for Emax: MCF7, read-out: ER-α In Cell Western Assay (SP1) Max Response; for DC50: read-out: ER-α In Cell Western Assay (SP1) IC50. In kind it is cell-based. As for the experimental part:
MCF-7 cells were adjusted to a concentration of 200,000 cells per mL in RPMI containing 10% charcoal-stripped FBS and 20 mM HEPES. 16 microliters of the cell suspension (3200 cells) was added to each well of a poly-D-lysine 384 well plate, and the cells were incubated overnight to allow the cells to adhere. The following day an eleven point, serial semilog dilution of each compound was added to the cells in 16 μL at a final concentration ranging from 0.3-0.000003 μM. At 4 or 24 hr post compound addition, the cells were fixed (10% formalin in PBS) for 20 minutes. Cells were permeablized in PBS 0.1% Triton and blocked with LICOR blocking buffer (50 μl/well, 90′). The wells were then incubated overnight at 4° C. with SP1 rabbit monoclonal Ab (Thermo Scientific) diluted 1:1000 in LICOR blocking buffer/0.1% Tween-20. Wells which were treated with blocking buffer with Tween but no antibody were used as a background control. Wells were washed with 0.1% Tween-20/PBS and then incubated in goat anti-rabbit IRDye™ 800 CW (LICOR Inc.; 1:10000) and DRAQ5 DNA dye (1:2000 for 2 mM stock) diluted in LICOR blocking buffer containing 0.1% Tween-20 and 0.01% SDS for 60 minutes. Cells were washed (50 μl/well, 5′ each) in 0.1% Tween-20/PBS. Plates were scanned on a LICOR Odyssey infrared imaging system. Integrated intensities in the 800 nm channel and 700 nm channel were measured to determine levels of ER and DNA respectively. Percent ER levels were determined as follows: (Integrated intensity 800 nm sample/integrated intensity 700 nm sample)/(Integrated intensity 800 nm untreated cells/integrated intensity 700 nm untreated cells)×100=% ER levels.

In assay [2] the test system is MCF-7 cells. As to the kind of experiment: MCF7 Viability Assay (Breast Cancer Cell Viability Assay). Format: cell-based. Conditions: 5 days' compound exposure, CellTiter-Glo; for IC50: Homo sapiens, MCF7, 120 h. The procedure: MCF-7 cells were adjusted to a concentration of 20,000 cells per mL in RPMI containing 10% FBS and 20 mM HEPES. 16 microliters of the cell suspension (320 cells) was added to each well of a 384 well plate, and the cells were incubated overnight to allow the cells to adhere. The following day an eleven point, serial semilog dilution of each compound was added to the cells in 16 μL at a final concentration ranging from 0.3-0.000003 μM. After 5 days' compound exposure, 16 μL of CellTiter-GLo (Promega, Madison Wis.) was added to the cells, and the relative luminescence units (RLUs) of each well were determined. CellTiter-Glo added to 32 μL of medium without cells was used to obtain a background value. The Percent viability of each sample was determined as follows: (RLU sample-RLU background/RLU untreated cells-RLU background)×100=% viability.
A general note: ATP-based viability assays read luminescence as a measure of living cells.

These results are taken from patent US9586952B2, “Polycyclic estrogen receptor modulators and uses thereof” (SERAGON PHARMACEUTICALS, INC., priority 2013, dated 2017).

Usually IC50 stands for the concentration at which inhibition is half-maximal.

Where only a bound is given, the exact number is not on record here.

On to `O=C(O)/C=C/c1ccc(/C(=C(\c2ccccc2)C2CCC2)c2ccc(-c3cn[nH]c3)cc2)cc1` [Example 1, (E)-3-(4-((E)-1-(4-(1H-Pyrazol-4-yl)phenyl)-2-cyclobutyl-2-phenylvinyl)phenyl)acrylic acid], for which, in assay [1], the Emax is no less than 40% and the DC50 was no more than 100 nM. In addition, in assay [2], the “MCF7 Viability Assay Max Response” value is “++ (++ = a single % value ≧ 40%)” and the IC50 is no more than 100 nM.
As to `CC/C(=C(/c1ccc(/C=C/C(=O)O)cc1)c1ccc(-c2cncs2)cc1)c1ccc(F)cc1Cl` [Example 2, (E)-3-(4-((E)-2-(2-Chloro-4-fluorophenyl)-1-(4-(thiazol-5-yl)phenyl)but-1-en-1-yl)phenyl)acrylic acid], in assay [1], the Emax was no less than 40% and the DC50 is no more than 100 nM. For the same molecule, in assay [2], the “MCF7 Viability Assay Max Response” value was “++ (++ = a single % value ≧ 40%)” and the IC50 is no more than 100 nM.
In the case of `N#Cc1ccc(/C(=C(\c2ccc(/C=C/C(=O)O)cc2)c2ccc(-c3cn[nH]c3)cc2)C2CCC2)c(Cl)c1` [Example 3, (E)-3-(4-((E)-1-(4-(1H-Pyrazol-4-yl)phenyl)-2-(2-chloro-4-cyanophenyl)-2-cyclobutylvinyl)phenyl) acrylic acid], in assay [1], the Emax is no less than 40% and the DC50 is no more than 100 nM. In assay [2], the “MCF7 Viability Assay Max Response” value is “++ (++ = a single % value ≧ 40%)” and the IC50 was no more than 100 nM.
Consider `COc1ccc(/C(=C(\c2ccc(/C=C/C(=O)O)cc2)c2ccc(N3CCOCC3)cc2)C2CCC2)c(Cl)c1` [Example 4, (E)-3-(4-((E)-2-(2-Chloro-4-methoxyphenyl)-2-cyclobutyl-1-(4-morpholinophenyl)vinyl)phenyl)acrylic acid], for which, in assay [1], the Emax was no less than 40% and the DC50 is no more than 100 nM. For the same molecule, in assay [2], the “MCF7 Viability Assay Max Response” value is “++ (++ = a single % value ≧ 40%)” and the concentration for half-maximal inhibition (IC50) is no more than 100 nM.
For the molecule `N#Cc1ccc(/C(=C(\c2ccc(/C=C/C(=O)O)cc2)c2ccc(-c3cncs3)cc2)C2CCC2)c(Cl)c1` [Example 5, (E)-3-(4-((E)-2-(2-Chloro-4-cyanophenyl)-2-cyclobutyl-1-(4-(thiazol-5-yl)phenyl)vinyl)phenyl)acrylic acid], in assay [1], the Emax is no less than 40% and the DC50 is no more than 100 nM. For the same molecule, in assay [2], the “MCF7 Viability Assay Max Response” value is listed as “++ (++ = a single % value ≧ 40%)” and the IC50 was no more than 100 nM.
In the case of `CC/C(=C(/c1ccc(/C=C/C(=O)O)cc1)c1ccc(-c2ccn[nH]2)cc1)c1ccccc1` [Example 6, (E)-3-(4-((E)-1-(4-(1H-Pyrazol-5-yl)phenyl)-2-phenylbut-1-en-1-yl)phenyl)acrylic acid], in assay [1], the Emax was no less than 40% and the DC50 was no more than 100 nM. Also, in assay [2], the “MCF7 Viability Assay Max Response” value is “++ (++ = a single % value ≧ 40%)” and the IC50 was greater than 100 nM.
As to `CC/C(=C(/c1ccc(/C=C/C(=O)O)cc1)c1cccc(-c2ccn[nH]2)c1)c1ccccc1` [Example 7, (E)-3-(4-((E)-1-(3-(1H-Pyrazol-5-yl)phenyl)-2-phenylbut-1-en-1-yl)phenyl)acrylic acid], in assay [1], the Emax was no less than 40% and the DC50 was greater than 100 nM. Besides, in assay [2], the “MCF7 Viability Assay Max Response” value is given as “+ (+ = a single % value < 40%)” and the IC50 was greater than 100 nM.
As to `CC/C(=C(/c1ccc(/C=C/C(=O)O)cc1)c1ccc(-c2nccs2)cc1)c1ccccc1` [Example 8, (E)-3-(4-((E)-2-Phenyl-1-(4-(thiazol-2-yl)phenyl)but-1-en-1-yl)phenyl)acrylic acid], in assay [1], the Emax is no less than 40% and the DC50 was no more than 100 nM. In addition, in assay [2], the “MCF7 Viability Assay Max Response” value is recorded as “++ (++ = a single % value ≧ 40%)” and the IC50 is greater than 100 nM.
In the case of `CC/C(=C(/c1ccc(/C=C/C(=O)O)cc1)c1ccc(-c2cncs2)cc1)c1ccccc1` [Example 9, (E)-3-(4-((E)-2-Phenyl-1-(4-(thiazol-5-yl)phenyl)but-1-en-1-yl)phenyl)acrylic acid], in assay [1], the Emax is no less than 40% and the DC50 is no more than 100 nM. Also, in assay [2], the “MCF7 Viability Assay Max Response” value is listed as “++ (++ = a single % value ≧ 40%)” and the IC50 is no more than 100 nM.
With `CC/C(=C(/c1ccc(/C=C/C(=O)O)cc1)c1ccc(-c2cscn2)cc1)c1ccccc1` [Example 10, (E)-3-(4-((E)-2-Phenyl-1-(4-(thiazol-4-yl)phenyl)but-1-en-1-yl)phenyl)acrylic acid], in assay [1], the Emax was no less than 40% and the DC50 is no more than 100 nM. In assay [2], the “MCF7 Viability Assay Max Response” value is recorded as “++ (++ = a single % value ≧ 40%)” and the IC50 was greater than 100 nM.
For `CC/C(=C(/c1ccc(/C=C/C(=O)O)cc1)c1cccc(-c2nccs2)c1)c1ccccc1` [Example 11, (E)-3-(4-((E)-2-Phenyl-1-(3-(thiazol-2-yl)phenyl)but-1-en-1-yl)phenyl)acrylic acid], in that order: less than 40%, greater than 100 nM, “+ (+ = a single % value < 40%)” and greater than 100 nM.
In the same order, the values of `CC/C(=C(/c1ccc(/C=C/C(=O)O)cc1)c1cccc(-c2cscn2)c1)c1ccccc1` [Example 12, (E)-3-(4-((E)-2-Phenyl-1-(3-(thiazol-4-yl)phenyl)but-1-en-1-yl)phenyl)acrylic acid] are less than 40%, greater than 100 nM, “+ (+ = a single % value < 40%)” and greater than 100 nM.
For `O=C(O)/C=C/c1ccc(/C(=C(\c2ccccc2)C2CCC2)c2ccc(-c3cncs3)cc2)cc1` [Example 13, (E)-3-(4-((E)-2-Cyclobutyl-2-phenyl-1-(4-(thiazol-5-yl)phenyl)vinyl)phenyl)acrylic acid], in that order: no less than 40%, no more than 100 nM, “++ (++ = a single % value ≧ 40%)” and no more than 100 nM.
With `CC/C(=C(/c1ccc(/C=C/C(=O)O)cc1)c1ccc(-c2cccnc2)cc1)c1ccccc1` [Example 14, (E)-3-(4-((E)-2-Phenyl-1-(4-(pyridin-3-yl)phenyl)but-1-en-1-yl)phenyl)acrylic acid], in assay [1], the Emax was no less than 40% and the DC50 was no more than 100 nM. Further, in assay [2], the “MCF7 Viability Assay Max Response” value was “++ (++ = a single % value ≧ 40%)” and the IC50 was greater than 100 nM.
In the same order, the values of `CC/C(=C(/c1ccc(/C=C/C(=O)O)cc1)c1ccc(-c2cnsc2)cc1)c1ccccc1` [Example 15, (E)-3-(4-((E)-1-(4-(Isothiazol-4-yl)phenyl)-2-phenylbut-1-en-1-yl)phenyl)acrylic acid] are no less than 40%, no more than 100 nM, “++ (++ = a single % value ≧ 40%)” and greater than 100 nM.
For `CC/C(=C(/c1ccc(/C=C/C(=O)O)cc1)c1ccc(N2CCOCC2)cc1)c1ccccc1` [Example 16, (E)-3-(4-((E)-1-(4-Morpholinophenyl)-2-phenylbut-1-en-1-yl)phenyl)acrylic acid], in that order: no less than 40%, no more than 100 nM, “++ (++ = a single % value ≧ 40%)” and no more than 100 nM.
